{
  "source": "patent US9730905B2",
  "about": "“Monounsaturated fatty acid for preventing and/or treating skin complexion imperfections” (L'OREAL, priority 2010, dated 2017)",
  "system": "skin tissue",
  "experiment": "Inventors' demonstration of the effect of monounsaturated fatty acids on skin tissue and complexion",
  "conditions": "in vivo",
  "data": [
    {"smiles": "CCCCCCCCCCC/C=C\\CCCCC(=O)O", "note": "[petroselinic acid]", "values": [
      {"measurement": "restoration of normal skin tissue / complexion", "result": "lead to a restoration of normal skin tissue in perfect homeostasis"}
    ]}
  ]
}
